Laboratory results as given in paper PMC12040169 (PLOS Biology, 2025).

Assay: in vitro
Details: human, hela cells, % viability

Structure (SMILES)	viability at 28.5 h, 10 µM [%]	viability at 28.5 h, 10 µM (bulk resorufin, single well) [%]
O=C(O)/C=C/c1cn([C@H]2C[C@@H](O)[C@@H](CO)O2)c(=O)[nH]c1=O [CBK201174]	92.9	–
CC(=O)N[C@H](C)Cn1nnc2ccccc21 [CBK282246]	88	–
COc1ccc(CCNCc2ccc([N+](=O)[O-])cc2)cc1OC [CBK262217]	–	115
CC(=O)c1c(O)n(C2CCCCC2)c(=O)[nH]c1=O [CBK287861]	–	91.9
O=C(Nc1ncccc1O)c1cnc2c(cnn2C2CCCC2)c1 [CBK305246]	99.9	–
O=C1NC2(CCCCCC2)C(=O)N1Cc1coc(-c2cccs2)n1 [CBK305858]	94.2	–
O=C(CN1C(=O)N2CCCN=C2c2ccccc21)NC1CCCC1 [CBK284397]	82.6	–
N#C/C(=C\c1cn(-c2ccccc2)nc1-c1ccc(S(=O)(=O)N2CCCCC2)cc1)c1nc2ccccc2c(=O)[nH]1 [CBK266268]	101	–
CCCNC(=O)Cn1cnc2sc(C(=O)Nc3ccccc3OC)c(C)c2c1=O [CBK071910]	90.3	–
O=C(c1ccco1)N1CCN(C(=S)Nc2ccc(S(=O)(=O)Nc3ncccn3)cc2)CC1 [CBK267096]	104	–
CCOC(=O)c1cnc(SCc2cccc([N+](=O)[O-])c2)nc1N [CBK266449]	95	–
O=C(CCc1ccncc1)N1CCC(c2cc3ncccc3[nH]2)CC1 [CBK284460]	84.3	–
CC(C)[C@H](CO)Nc1nccnc1-c1cccs1 [CBK089047]	99	–
Cn1c(=O)n(C)c2cc(S(=O)(=O)NCC3(O)CCCNCC3)ccc21 (stereo not drawn) [CBK306777]	84.9	–
CC(=O)N1CC[C@H]2NC(=O)CNC(=O)C3(CCCC[C@H]2C1)CCN(C(=O)c1n[nH]c2c1CCC2)CC3 [CBK292012]	102	–
CN(C)CCN(CCc1ccccc1)Cc1ccncc1 [CBK283145]	91.5	–
O=C1CCCN1CCC(=O)N1CCCC1c1nc2ccccc2[nH]1 (stereo not drawn) [CBK283981]	84.2	–
COc1ccc(/C=N/NC(=O)CCc2c(C)n[nH]c2C)cc1O [CBK262894]	93.6	–
O=C(Nc1cccnc1)c1ncoc1-c1ccc(F)cc1 [CBK104357]	106	–
CN1CCN(S(=O)(=O)c2ccc3c(c2)oc(=O)c2cc(S(=O)(=O)N4CCN(C)CC4)ccc23)CC1 [CBK267206]	85	–
CC(C)C(=O)Nc1cc2cccnc2nc1-c1ccsc1 [CBK073649]	87.8	–
Cn1cc(Nc2nc(-c3ccc4c(c3)CCCN4S(C)(=O)=O)cs2)cn1 [CBK306236]	85.7	–

Structure (SMILES)	viability at 28.5 h, 10 µM [%]	viability at 28.5 h, 10 µM (bulk resorufin, single well) [%]
COc1nccc(N2CCN(C)C3(CCNC(=O)CC3)C2)c1C#N (stereo not drawn) [CBK307676]	116	–
Cc1cc(C(F)(F)F)nn1CC(=O)Nc1sc2c(c1C#N)CCC(C)C2 (stereo not drawn) [CBK304619]	92.1	–
CCNc1ccn([C@H]2C[C@@H](O)[C@@H](CO)O2)c(=O)n1 [CBK201311]	95.2	–
Cc1nc(-c2cccnc2)[nH]c(=O)c1CC(=O)N1CCSCC1 [CBK305944]	90.7	–
Cc1cc(=O)n(CC(=O)NC(Cc2ccncc2)[C@H]2C[C@H](O)C2)nc1C (stereo partly drawn) [CBK306641]	101	–
Cc1ccc(CSCC(=O)NCCN2CCOCC2)cc1 [CBK269327]	90.4	–
CN(C)Cc1cn([C@H]2CO[C@H]3[C@@H]2OC[C@@H]3NC(=O)NC2CCCCC2)nn1 [CBK289493]	88.9	–
Cc1[nH]c2ccccc2c1C(=O)CSc1nnc(N)s1 [CBK266328]	102	–
FC(F)(F)c1ccc(-c2c[nH]c([C@@H]3COCCN3Cc3csnn3)n2)cc1 [CBK289318]	92.2	–
CCSc1ccccc1-c1nc2c(=O)n(C)c(-c3ccc(CN4CCCC4)cc3)cc2o1 [CBK200426T]	77.9	–
COc1ccc([C@@]23CC[C@@H](NC(=S)NC(C)=O)C[C@@H]2N(Cc2ccccc2)CC3)cc1OC [CBK025503T]	90.2	–
N#CCCN(CCN1CCCC1)S(=O)(=O)c1cccc2nsnc12 [CBK261141]	99.3	–
Nc1ncnc(Nc2cccc(F)c2)n1 [CBK017447]	91.7	–
CCCn1cnnc1C(C)NS(=O)(=O)c1cccc(C(=O)N2CCC2)c1 (stereo not drawn) [CBK306569]	103	–
CCNC(=O)c1ccc(-c2ccc(S(C)(=O)=O)cc2)nc1 [CBK158882]	91.9	–
Cc1ccc(-c2csc3ncn4nnnc4c23)cc1 [CBK019710]	92.5	–
C/C=C/c1ccc(OCCCSc2nc(C)cc(O)n2)c(OC)c1 [CBK267413]	93.5	–
CC(CC(=O)N1CCC(Oc2ccccc2F)CC1)n1cccn1 (stereo not drawn) [CBK282118]	84.6	–
COc1ccc([C@@]23CC=C(N(Cc4ccccc4)C(=O)Nc4ccc(F)c(F)c4)C[C@@H]2N(C)CC3)cc1OC [CBK050179]	94.9	–
C=CCSC1=N/C(=C\c2ccc(C(=O)O)cc2)C(=O)S1 [CBK265057]	95.7	–
COC(=O)c1ccccc1NC(C)=O [CBK003522]	–	107
O=C(O)C[C@@H]1CCN(C(=O)c2ccc3c(c2)OCO3)C[C@@H]1CC1=NCCc2ccccc21 [CBK289160]	110	–

Structure (SMILES)	viability at 28.5 h, 10 µM [%]	viability at 28.5 h, 10 µM (bulk resorufin, single well) [%]
CCC(C)(CC(=O)O)CC(=O)N1CCC2(C1)NCCc1c2[nH]c2ccccc12 (stereo not drawn) [CBK047003]	88.5	–
Cc1ccc(S(=O)(=O)Nc2ccccc2CNc2ccccn2)cc1 [CBK264198]	91.9	–
CCOC(=O)C(NC(=O)CCn1ccc2ccncc21)C(C)C (stereo not drawn) [CBK284719]	91.6	–
O=C(Oc1ccccc1)c1cc(S(=O)(=O)N2CCOCC2)c(Cl)cc1Cl [CBK269656]	83.5	–
NC(=O)CN1CCCc2ccccc21 [CBK138343]	90	–
O=C(c1nn2c(C(F)(F)F)cc(-c3ccccc3)nc2c1Cl)N1CCOCC1 [CBK051498]	90.4	–
Cc1nnc([C@H]2CCN(Cc3ccc(F)cc3)C2)o1 [CBK289391]	88.4	–
O=C(c1ccco1)N1CCN(c2cc(-c3cc(C(F)(F)F)cc(C(F)(F)F)c3)ncn2)CC1 [CBK037734]	102	–
CC1(C(=O)NS(=O)(=O)c2cccc(-c3nnco3)c2)CC1 [CBK304683]	106	–
c1ccc(CNc2nc(-c3ccco3)cn3ccnc23)cc1 [CBK037955]	90.6	–
CC(C(=O)Nc1cccc(N2CCNCC2)c1)c1ccccc1 (stereo not drawn) [CBK004770T]	95.6	–
COCc1nc(NCCCn2c(C)cccc2=O)cc(C2CCOC2)n1 (stereo not drawn) [CBK306845]	90.9	–
CCOC(=O)C1(C2CCCCC2)CCN(C(=O)CC2NC(=O)NC2=O)CC1 (stereo not drawn) [CBK136938]	100	–
Cc1cccc(C)c1NC(=O)CC1Sc2ccccc2NC1=O (stereo not drawn) [CBK267160]	97	–
CCCC(=O)Nc1ccc(OCc2ncc(C(C)(C)C)o2)c(C(C)=O)c1 [CBK305218]	86.2	–
O=C(c1ccccc1)c1cc[n+](CCC[n+]2ccc(C(=O)c3ccccc3)cc2)cc1 [CBK278270B]	91.5	–
Cc1nn(CC(=O)NC(C)c2cccnc2)c(C)c1C (stereo not drawn) [CBK281489]	102	–
COc1ccccc1-c1nnc(SC)n1-c1ccc(C)cc1 [CBK076670]	93.2	–
COc1ccccc1CCNC(=O)c1cnccn1 [CBK268147]	59.7	–
Cn1c(C(=O)N2CCc3ccccc3C2)cc2ccccc21 [CBK200337]	96.7	–
O=C(COc1ccc(NS(=O)(=O)c2ccc3c(c2)Cc2ccccc2-3)cc1)N1CCOCC1 [CBK266030]	101	–
O=C(CCc1ccccc1)Nc1cccc(N2C(=O)C3C4c5ccccc5C(c5ccccc54)C3C2=O)c1 (stereo not drawn) [CBK265409]	91.1	–

Structure (SMILES)	viability at 28.5 h, 10 µM [%]	viability at 28.5 h, 10 µM (bulk resorufin, single well) [%]
Cc1cccc(-c2cc(C(=O)O)c(C)o2)c1 [CBK045855]	87.7	–
CCN1CCCc2cc(-c3cncn3CCCn3ccnc3C)ccc21 [CBK281810]	109	–
OC(COc1ccc(-c2ccccc2)cc1)CN1CCN(Cc2ccccc2)CC1 (stereo not drawn) [CBK074855C]	94.6	–
C[C@H](NC(=O)N1CCC2(CC1)NCCc1c2[nH]c2ccc(Cl)cc12)c1ccccc1 [CBK047046]	90	–
O=C(c1ccncc1)n1nc(NCc2ccccc2)nc1NCc1ccccc1 [CBK269069]	89.5	–
CCOC(=O)N1CCN(Cn2nc(COc3ccccc3)n(C)c2=S)CC1 [CBK265148]	97.4	–
C=CCn1c(SCC(=O)Nc2ccccn2)nnc1-c1ccc(Br)cc1 [CBK022413]	96.3	–
COc1cc(OC)c(S(=O)(=O)N2CCOCC2)cc1S(=O)(=O)N1CCOCC1 [CBK267564]	98.1	–
O=C(O)c1csc(S(=O)(=O)Nc2ccc(Br)cc2Cl)c1 [CBK297731]	101	–
c1ccc(Oc2ccc(Nc3ccc(-c4cccc5cccnc45)cn3)cc2)cc1 [CBK037643]	105	–
CCN(CC)Cc1ccc(C(=O)N2CCC(c3ccncc3)CC2)o1 [CBK283051]	105	–
CCCc1cc(C2CCCCCN2C(=O)c2cccnc2)no1 (stereo not drawn) [CBK282987]	99.5	–
COc1ccc2[nH]c(-c3cncn3CCCC(C)(C)CO)cc2c1 [CBK281778]	90.9	–
Cc1cccc(NC(=O)[C@@H](NC(=O)c2ccccc2F)C(C)C)c1C [CBK297509]	85.4	–
N#CCC(=O)Nc1ccc(C(=O)N2CCN(c3ccccc3)CC2)cc1 [CBK306060]	91.9	–
Cc1ccc(C2c3c(oc4ccccc4c3=O)C(=O)N2CCCCCC(=O)O)cc1 (stereo not drawn) [CBK287158]	94.1	–
COc1cccc(CN2CCCC3(C2)NCCc2c3[nH]c3cc(F)ccc23)c1 (stereo not drawn) [CBK039786]	87.5	–
CCc1c(C)nn(-c2ccccc2Br)c1-c1ccccc1 [CBK016757]	87.9	–
O=S(=O)(CCN1CCN(C(c2ccccc2)c2ccccc2)CC1)c1ccc(Cl)cc1 [CBK074810]	92	–
CCCn1c(SCC(=O)N2CCOCC2)nc2ccc(Br)cc2c1=O [CBK305929]	83	–
O=C(O)CN1CCC(Oc2nccnc2OCc2ccc(Cl)c(Cl)c2)CC1 [CBK144443]	97	–
